In patent US6670339B1, “Use of sulfated oligosaccharides in lowering blood triglyceride levels” (The Australian National University, priority 1997, dated 2003):
Where two headings read alike, the source gives them in different places.

Experiments:
[1] = system: serum triglyceride levels; experiment: Serum triglyceride lowering by glycosaminoglycans and sulfated oligosaccharides in mice; format: in vivo, CBA/h female mice; details: 50 mg/kg s.c., 2 hours after injection
Description: FIG. 3. Ability of different glycosaminoglycans and sulfated oligosaccharides to lower serum triglyceride levels in CBA mice. Compounds were injected s.c. at a dose of 50 mg/kg, blood samples taken 2 hours later and assayed for triglyceride content. Each histogram is the mean±SEM (n=3) for each treatment.
Mice (CBA/h female mice 8-10 weeks old) were injected s.c. with a range of glycosaminoglycans and sulfated oligosaccharides at a dose of 50 mg/kg and 2 hours later mice were anaesthetised, blood was collected via cardiac puncture and allowed to clot and serum triglyceride levels measured using a commercially available kit (Sigma, Triglyceride—GPO-Trinder). […] The only other compound with some activity was suramin, a sulfonated compound which has previously been used as an angiogenesis and heparanase inhibitor.

[2] = target: T1, bovine milk lipoprotein lipase (Bos taurus, UniProt P11151); experiment: Inhibition of binding of biotinylated heparin/heparan sulfate to immobilised lipoprotein lipase; details: for inhibitory activity on lipoprotein lipase binding to heparin/heparan sulfate, in words: summary of Table 1
T1 construct: purified from bovine milk as previously described; from tissue; host or cells: bovine milk
T1 sequence (P11151 29-478): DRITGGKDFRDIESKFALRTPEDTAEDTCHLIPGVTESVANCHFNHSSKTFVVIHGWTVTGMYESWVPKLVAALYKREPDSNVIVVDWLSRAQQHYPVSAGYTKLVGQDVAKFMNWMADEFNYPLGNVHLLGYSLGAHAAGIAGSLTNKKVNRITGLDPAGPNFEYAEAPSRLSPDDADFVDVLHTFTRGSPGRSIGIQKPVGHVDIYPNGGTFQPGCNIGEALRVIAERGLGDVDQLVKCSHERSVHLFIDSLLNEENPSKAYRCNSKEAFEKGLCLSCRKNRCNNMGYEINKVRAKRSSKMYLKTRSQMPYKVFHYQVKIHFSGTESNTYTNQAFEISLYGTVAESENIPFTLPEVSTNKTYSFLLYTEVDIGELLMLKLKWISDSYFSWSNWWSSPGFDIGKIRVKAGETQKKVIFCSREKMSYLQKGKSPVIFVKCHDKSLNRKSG
Description: As a more rapid and direct means of measuring the ability of different sulfated oligosaccharides to release lipoprotein lipase from the endothelium, an in vitro assay for this effect was developed. The assay involved immobilising lipoprotein lipase (10 μg/ml in PBS, 15 hr, 4° C.), purified from bovine milk as previously described^12, in 96 well plastic microplates (50 μl/well). Non-specific binding sites were then blocked by the addition of 200 μl/well of PBS containing 1% (w/v) bovine serum albumin (BSA) for 2 hr at 4° C. Following three washes with 200 μl/well of PBS/0.05% Tween 20 (PBST), 50 μl/well of either biotinylated bovine lung heparin or biotinylated porcine mucosal heparan sulfate (Sigma), used at either 1 or 10 μg/ml, was added and incubated for 2 hr at 4° C. Following three washes with PBST, 50 μl/well of europeum-streptavidin (1 ng/ml in PBS/1% BSA) was added for 1 hr at 4° C., the plate again washed three times with PBST, enhancement solution (50 μl/well) added and bound europeum measured by time resolved fluorescence detection using a Delfia Research Fluorometer (Wallac, Turku, Finland). Inhibition assays measured the ability of different sulfated oligosacchandes to inhibit the binding of biotinylated heparan/heparin sulfate to the immobilised lipoprotein lipase enzyme.

[3] = biotinylated bovine lung heparin 1 μg/ml
[4] = biotinylated bovine lung heparin 10 μg/ml

Row | Compound | effect on serum triglyceride levels, in words [1] | IC50, inhibition of binding of Biotinylated Heparin (1 μg/ml) to lipoprotein lipase [2, 3] [µg/mL] | inhibitory activity on lipoprotein lipase binding to heparin/heparan sulfate, in words [2] | IC50 ([2]; biotinylated bovine lung heparin 1 μg/ml, read-out: IC50, inhibition of binding of Biotinylated Heparin (1 μg/ml) to lipoprotein lipase) [µM] | IC50 ([2]; biotinylated bovine lung heparin 10 μg/ml, read-out: IC50, inhibition of binding of Biotinylated Heparin (10 μg/ml) to lipoprotein lipase) [µM] | IC50, inhibition of binding of Biotinylated Heparin (10 μg/ml) to lipoprotein lipase [2, 4] [µg/mL]
1 | O=S(=O)(O)OC[C@H]1O[C@@](COS(=O)(=O)O)(O[C@H]2O[C@H](COS(=O)(=O)O)[C@@H](OS(=O)(=O)O)[C@H](OS(=O)(=O)O)[C@H]2OS(=O)(=O)O)[C@@H](OS(=O)(=O)O)[C@@H]1OS(=O)(=O)O [Sucrose octasulfate, reference compound] | small but significant enhancement | >200 | lacked activity | – | – | –
2 | Cc1ccc(C(=O)Nc2ccc(S(=O)(=O)O)c3cc(S(=O)(=O)O)cc(S(=O)(=O)O)c23)cc1NC(=O)c1cccc(NC(=O)Nc2cccc(C(=O)Nc3cc(C(=O)Nc4ccc(S(=O)(=O)O)c5cc(S(=O)(=O)O)cc(S(=O)(=O)O)c45)ccc3C)c2)c1 [Suramin, reference compound] | some activity | – | lacked activity | > 77.1 | > 77.1 | –
3 | Cellohexaose | – | – | exhibited activity | – | – | 12
4 | maltoheptaose sulfate [Maltoheptaose SO4] | significantly lowered triglyceride levels | 3 | inhibitory | – | – | 12
5 | maltohexaose sulfate [Maltohexaose SO4] | significantly lowered triglyceride levels | 3 | potent inhibitors | – | – | 6
